Reference: US9284333B2, “Fused pyrroledicarboxamides and their use as pharmaceuticals” (SANOFI, priority 2012, dated 2016)

The molecules below were run against Human TASK-1 channels (Homo sapiens (Human), UniProt O14649) (assay: Determination of the activity on the TASK-1 channel in Xenopus oocytes (two-microelectrode voltage clamp)). Conditions: compound concentration 5 μM.
Type: cell-based
How it was run: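 Xenopus oocytes were injected with human TASK-1 cRNA and recorded two days later by two-microelectrode voltage clamp, holding at −90 mV with 500 ms steps to 40 mV. Superfusion used ND96, pH 7.4, at room temperature, with rising compound concentrations; percentage inhibition of control current was fitted to a dose-response curve for IC50.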

Chain of Human TASK-1 channels (O14649 whole entry): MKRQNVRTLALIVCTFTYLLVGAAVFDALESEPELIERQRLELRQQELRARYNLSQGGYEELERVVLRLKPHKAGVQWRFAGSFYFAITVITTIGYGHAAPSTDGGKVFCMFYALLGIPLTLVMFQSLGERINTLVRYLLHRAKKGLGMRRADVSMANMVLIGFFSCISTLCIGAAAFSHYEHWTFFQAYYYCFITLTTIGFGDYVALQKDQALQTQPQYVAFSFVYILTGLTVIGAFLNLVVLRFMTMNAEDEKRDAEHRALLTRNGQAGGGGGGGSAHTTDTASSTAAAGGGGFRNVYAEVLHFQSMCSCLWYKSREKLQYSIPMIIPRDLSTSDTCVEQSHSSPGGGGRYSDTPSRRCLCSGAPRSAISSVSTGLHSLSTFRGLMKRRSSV

Row | inhibition at 5 µM [%] | SMILES
1 | 92 | CC[C@@H](NC(=O)c1cc(C(=O)N2CCC[C@H]2c2ccccc2)n2c1CCCC2)c1ccccc1 [16mn, 3-((S)-2-Phenyl-pyrrolidine-1-carbonyl)-5,6,7,8-tetrahydro-indolizine-1-carboxylic acid ((R)-1-phenyl-propyl)-amide]
2 | 77 | CC(C)[C@@H](NC(=O)c1cc(C(=O)N2CCC[C@@H]2C)c2n1CCOC2)c1ccc(C#N)nc1 [16nm, 8-((S)-2-Methyl-pyrrolidine-1-carbonyl)-3,4-dihydro-1H-pyrrolo[2,1-c][1,4]oxazine-6-carboxylic acid [(R)-1-(6-cyano-pyridin-3-yl)-2-methyl-propyl]-amide]
3 | 89 | CC[C@@H](NC(=O)c1cc(C(=O)N2CCCC2C(O)c2ccccc2)n2c1COCC2)c1ccccc1 (stereo partly drawn) [16fj, 6-[2-(Hydroxy-phenyl-methyl)-pyrrolidine-1-carbonyl]-3,4-dihydro-1H-pyrrolo[2,1-c][1,4]oxazine-8-carboxylic acid ((R)-1-phenyl-propyl)-amide]

Same assay, conditions: human TASK-1 expressed in Xenopus oocytes, room temperature; read-out: IC50 value for TASK-1 inhibition

Row | SMILES | IC50 [nM]
4 | CC[C@@H](NC(=O)c1cc(C(=O)N[C@H](C)c2ccc(F)cc2)n2c1COCC2)c1ccc(C(F)(F)F)nc1 [16g, 3,4-Dihydro-1H-pyrrolo[2,1-c][1,4]oxazine-6,8-dicarboxylic acid 6-{[(R)-1-(4-fluoro-phenyl)-ethyl]-amide} 8-{[(R)-1-(6-trifluoromethyl-pyridin-3-yl)-propyl]-amide}] | 290
5 | CC[C@@H](NC(=O)c1cc(C(=O)NC(C)COC)n2c1COCC2)c1ccccc1 (stereo partly drawn) [16gg, 3,4-Dihydro-1H-pyrrolo[2,1-c][1,4]oxazine-6,8-dicarboxylic acid 6-[(2-methoxy-1-methyl-ethyl)-amide] 8-[((R)-1-phenyl-propyl)-amide]] | 230
6 | CC[C@@H](NC(=O)c1cc(C(=O)N2CCC[C@@H]2C)n2c1COCC2)c1ccc(C(F)(F)F)nc1Cl [16cc, 6-((S)-2-Methyl-pyrrolidine-1-carbonyl)-3,4-dihydro-1H-pyrrolo[2,1-c][1,4]oxazine-8-carboxylic acid [(R)-1-(2-chloro-6-trifluoromethyl-pyridin-3-yl)-propyl]-amide] | 65
7 | CC[C@@H](NC(=O)c1cc(C(=O)N2CC[C@H](Oc3ccc(F)cc3)C2)n2c1COCC2)c1ccccc1 [16fu, 6-[(S)-3-(4-Fluoro-phenoxy)-pyrrolidine-1-carbonyl]-3,4-dihydro-1H-pyrrolo[2,1-c][1,4]oxazine-8-carboxylic acid ((R)-1-phenyl-propyl)-amid] | 240
8 | CC[C@@H](NC(=O)c1cc(C(=O)N2CCCC2(C)C)n2c1COCC2)c1ccccc1 [16fb, 6-(2,2-Dimethyl-pyrrolidine-1-carbonyl)-3,4-dihydro-1H-pyrrolo[2,1-c][1,4]oxazine-8-carboxylic acid ((R)-1-phenyl-propyl)-amide] | 130
9 | CC[C@@H](NC(=O)c1cc(C(=O)N2CCC[C@@H]2C)n2c1COCC2)c1ccc(C#N)cc1F [16ay, 6-((S)-2-Methyl-pyrrolidine-1-carbonyl)-3,4-dihydro-1H-pyrrolo[2,1-c][1,4]oxazine-8-carboxylic acid [(R)-1-(4-cyano-2-fluoro-phenyl)-propyl]-amide] | 910
10 | CC[C@@H](NC(=O)c1cc(C(=O)N2CCCC2)n2c1COCC2)c1ccccc1Cl [16cy, 6-(Pyrrolidine-1-carbonyl)-3,4-dihydro-1H-pyrrolo[2,1-c][1,4]oxazine-8-carboxylic acid [(R)-1-(2-chloro-phenyl)-propyl]-amide] | 210
11 | CC[C@@H](NC(=O)c1cc(C(=O)NCc2ccccc2C#N)n2c1COCC2)c1ccccc1 [16gy, 3,4-Dihydro-1H-pyrrolo[2,1-c][1,4]oxazine-6,8-dicarboxylic acid 6-(2-cyano-benzylamide) 8-[((R)-1-phenyl-propyl)-amide]] | 320

The remaining lines, values ahead:

Row | IC50 [nM] | SMILES
12 | 240 | CC[C@H](NC(=O)c1cc(C(=O)N[C@H](C)c2ccc(F)cc2)n2c1COCC2)c1ncccn1 [16h, 3,4-Dihydro-1H-pyrrolo[2,1-c][1,4]oxazine-6,8-dicarboxylic acid 6-{[(R)-1-(4-fluoro-phenyl)-ethyl]-amide} 8-[((S)-1-pyrimidin-2-yl-propyl)amide]]
13 | 110 | CC[C@@H](NC(=O)c1cc(C(=O)N2CCC[C@@H]2COC(C)=O)n2c1COCC2)c1ccccc1 [16rg, acetic acid (R)-1-[8-((R)-1-phenyl-propylcarbamoyl)-3,4-dihydro-1H-pyrrolo[2,1-c][1,4]oxazine-6-carbonyl]-pyrrolidin-2-ylmethyl ester]
14 | 990 | CC[C@@H](NC(=O)c1cc(C(=O)N2CCOC[C@@H]2C)c2n1CCOC2)c1ccccc1 [16kh, 8-((S)-3-Methyl-morpholine-4-carbonyl)-3,4-dihydro-1H-pyrrolo[2,1-c][1,4]oxazine-6-carboxylic acid ((R)-1-phenyl-propyl)-amide]
15 | 140 | CC[C@@H](NC(=O)c1cc(C(=O)N2CCC[C@@H]2C(=O)OC(C)C)n2c1COCC2)c1ccccc1 [16n]
16 | 190 | CC[C@@H](NC(=O)c1cc(C(=O)N[C@H](C)C(C)(C)C)n2c1COCC2)c1ccccc1 [16hr, 3,4-Dihydro-1H-pyrrolo[2,1-c][1,4]oxazine-6,8-dicarboxylic acid 8-[((R)-1-phenyl-propyl)-amide] 6-[((R)-1,2,2-trimethyl-propyl)-amide]]
17 | 2100 | CC[C@@H](NC(=O)c1cc(C(=O)N2CCC[C@@H]2C)n2c1CCCC2)c1ccc(C#N)nc1 [16lv, 3-((S)-2-Methyl-pyrrolidine-1-carbonyl)-5,6,7,8-tetrahydro-indolizine-1-carboxylic acid [(R)-1-(6-cyano-pyridin-3-yl)-propyl]-amide]
18 | 450 | CC[C@@H](NC(=O)c1cc(C(=O)N(CC)Cc2nnn(C)n2)n2c1COCC2)c1ccccc1 [16rp, 3,4-Dihydro-1H-pyrrolo[2,1-c][1,4]oxazine-6,8-dicarboxylic acid 6-[ethyl-(2-methyl-2H-tetrazol-5-ylmethyl)-amide] 8-[((R)-1-phenyl-propyl)-amide]]
19 | 180 | CCOC(=O)CNC(=O)c1cc(C(=O)N[C@H](CC)c2ccccc2)c2n1CCOC2 [16k, {[8-((R)-1-Phenyl-propylcarbamoyl)-3,4-dihydro-1H-pyrrolo[2,1-c][1,4]oxazine-6-carbonyl]-amino}-acetic acid ethyl ester]
20 | 93 | CC[C@@H](NC(=O)c1cc(C(=O)NCC2CCCCC2)n2c1CCCC2)c1ccccc1 [16mp, 5,6,7,8-Tetrahydro-indolizine-1,3-dicarboxylic acid 3-cyclohexylmethyl-amide 1-[((R)-1-phenyl-propyl)-amide]]
21 | 57 | CC[C@H](NC(=O)c1cc(C(=O)N[C@H](CC)c2ccccc2)c2n1CCOC2)c1cnccn1 [16hx, 3,4-Dihydro-1H-pyrrolo[2,1-c][1,4]oxazine-6,8-dicarboxylic acid 8-[((R)-1-phenyl-propyl)-amide] 6-[((S)-1-pyrazin-2-yl-propyl)-amide]]

The molecules below were run on atrium of the anesthetized pig (assay: Investigation of the refractory period and the left-atrial vulnerability in the anesthetized pig). Conditions: Sus scrofa, iv, 0.1 mg/kg i.v. infusion over 1 h.
Type: in vivo
Procedure: Investigation of the Refractory Period and the Left-Atrial Vulnerability in the Pig
The compounds were tested for prolongation of the refractory period and antiarrhythmic activity on the atrium of the anesthetized pig as described in Knobloch K. et al., Naunyn-Schmiedeberg's Arch. Pharmacol. 2002, 366, 482-487. Here the anti-arrhythmic action relates to the inhibition of the occurrence of episodes of atrial arrhythmias which are induced by a prematurely placed extra-stimulus (S2) in the left atrium (=left-atrial vulnerability). The prolongation of the refractory period (refractoriness) is expressed as the increase in percent of the value of the refractory period 15 min after the end of administration of the test compound vs. the basal value before administration. Mean values of the prolongation of the refractory period are shown from three rates (150/min, 200/min and 250/min). The values for the inhibition of left atrial vulnerability (inhibition of episodes of arrhythmias) in percent refer to three measurements (three time points) before administration of the test compound vs. at least three measurements during the first hour after administration.
In Table 16, the action of compounds of the formula I from the examples above on the refractory period of the left atrium and their antiarrhythmic activity in the anesthetized pig after intravenous (i.v.) administration of the described dose is shown.

Row | SMILES | inhibition in vivo at 0.1 mg/kg [%]
22 | CC[C@H](NC(=O)c1cc(C(=O)N[C@H](C)c2ccc(F)cc2)n2c1COCC2)c1ncccn1 [16h, 3,4-Dihydro-1H-pyrrolo[2,1-c][1,4]oxazine-6,8-dicarboxylic acid 6-{[(R)-1-(4-fluoro-phenyl)-ethyl]-amide} 8-[((S)-1-pyrimidin-2-yl-propyl)amide]] | 97

Same assay, conditions: Sus scrofa, iv, 0.3 mg/kg i.v. bolus injection

Row | SMILES | inhibition in vivo at 0.3 mg/kg [%]
23 | CC[C@@H](NC(=O)c1cc(C(=O)N[C@H](C)c2ccc(F)cc2)n2c1COCC2)c1ccc(C(F)(F)F)nc1 [16g, 3,4-Dihydro-1H-pyrrolo[2,1-c][1,4]oxazine-6,8-dicarboxylic acid 6-{[(R)-1-(4-fluoro-phenyl)-ethyl]-amide} 8-{[(R)-1-(6-trifluoromethyl-pyridin-3-yl)-propyl]-amide}] | 100

Same assay, conditions: Sus scrofa, iv, 0.25 h, 0.1 mg/kg i.v. infusion over 1 h, read-out: % Prolongation of left atrial refractory period

Row | SMILES | change in vivo at 0.1 mg/kg [%]
24 | CC[C@H](NC(=O)c1cc(C(=O)N[C@H](C)c2ccc(F)cc2)n2c1COCC2)c1ncccn1 [16h, 3,4-Dihydro-1H-pyrrolo[2,1-c][1,4]oxazine-6,8-dicarboxylic acid 6-{[(R)-1-(4-fluoro-phenyl)-ethyl]-amide} 8-[((S)-1-pyrimidin-2-yl-propyl)amide]] | 42

Same assay, conditions: Sus scrofa, iv, 0.25 h, 0.3 mg/kg i.v. bolus injection, 15 min after administration vs basal, mean of three rates, read-out: % Prolongation of left atrial refractory period

Row | SMILES | change in vivo at 0.3 mg/kg [%]
25 | CC[C@@H](NC(=O)c1cc(C(=O)N[C@H](C)c2ccc(F)cc2)n2c1COCC2)c1ccc(C(F)(F)F)nc1 [16g, 3,4-Dihydro-1H-pyrrolo[2,1-c][1,4]oxazine-6,8-dicarboxylic acid 6-{[(R)-1-(4-fluoro-phenyl)-ethyl]-amide} 8-{[(R)-1-(6-trifluoromethyl-pyridin-3-yl)-propyl]-amide}] | 19
